Laboratory results from patent publication US20160326219A1, “OPTICALLY ACTIVATED RECEPTORS” (IST AUSTRIA (INSTITUTE OF SCIENCE AND TECHNOLOGY AUSTRIA), priority 2013, published 2016).
Where two headings read alike, the source gives them in different places.

Key:
M38K cells = assay: All optical evaluation of pharmacological compounds / cell morphology, M38K cells stably expressing Opto-mFGFR1; format: cell-based, human; conditions: for Abrogation of light-induced morphology changes of M38K cells: Opto-mFGFR1 activated by blue light ~3 μW/mm^2, PD 5 μM, BIBF 0.5 μM, PON 1 μM, SEL 0.5 μM, UO 10 μM, MK 10 μM, LY 20 μM, automated image analysis
Source text: M38K and SPC212, two malignant pleural mesothelioma cell lines, were maintained in RPMI1640 supplemented with 10% FBS. Telomerase-immortalized microvascular hBE cells were maintained in Clonetics EGM2 MV endothelial growth medium (Lonza, Wakersville, Md.) supplemented with 5% FBS. For retrovirus generation, Opto-mFGFR1 or mCherry as control was subcloned into pQCXIP (Clontech, Mountain View, Calif.) using EcoRI and NotI restriction enzymes. Viral particles were generated in HEK293 cells by co-transfection with the helper plasmids pVSV-G and p-gag-pol-gpt. Supernatants were used to transduce M38K, SPC212 or hBE cells grown to 50% confluency in 6-well plates. Cells were selected with 0.8 μg/ml puromycin for 10 d and transgene expression was verified by immunoblotting.
10^5 M38K cells were seeded in each well of 6-well plates. After 24 h, cells were stimulated for 1 h or kept in the dark. FGF2 (Sigma) or PD166866 (Pfizer Global Research and Development, New London, Conn.) were added as indicated. After additional 24 h, cells were photographed on the Nikon Ti300 microscope. For quantification of cell morphology, all cell perimeters in randomly selected sections of phase contrast images were traced and aspect ratios (defined as length of major axis divided by length of minor axis of a fitted ellipse) calculated with ImageJ software (National Institute of Health). Greater than 50 individual values contributed to each average.
For M38K cells, cell morphology was evaluated as described above but followed by automated image analysis. Phase contrast images (typically three images from two wells) were automatically analyzed. Images were converted to greyscale, resized and divided into segments for local threshold correction (threshold was defined as most probably intensity multiplied by a constant factor of 0.85; Igor Pro, Wavemetrics, Lake Oswego, Oreg.). Cells were identified and measured in FIJI/ImageJ (Max Planck Society/National Institutes of Health; size limit: 40 to 600 pixel̂2, circularity limit: 0.01 to 1.00). Occasionally, outliers were removed manually. Typically 200 to 1800 individual values contributed to the averages of FIG. 9. For HEK293 cells, MAPK pathway activation was measured using luciferase as described above.

MAPK pathway = assay: All optical evaluation of pharmacological compounds, luciferase signals of HEK293 cells expressing redOpto-rtrkB; format: cell-based, human; conditions: red light ~0.05 μW/mm^2, UO 10 μM, SEL 0.5 μM, PD 5 μM, IMA 0.5 μM, VEM 0.5 μM
Procedure: Phycocyanobilin (PCB; Livchem Logistics GmbH, Frankfurt a.M., Germany) was dissolved in a dark room to a stock concentration of 10 mM in DMSO. Aliquots were stored in the dark at −20° C. Prior to experiments, cells were incubated with 50 μM PCB overnight in reduced serum starve medium at 37° C. PCB could also be applied to applied to living animals as it is non-toxic even in high doses (0.17% of diet or 10 mg/kg) (McCarty (2007).
Activation of the MAPK pathway was assayed with the PathDetect Elk1 trans-Reporting System (Agilent) consisting of an Elk1 phosphorylation-dependent trans-activator and a luciferase-based trans-reporter. Cells were transfected with 213.3 ng total DNA per well (receptor, trans-activator and trans-reporter at ratio of 1:3:60 or 1:30:600) using Lipofectamine 2000. Six h after transfection medium was replaced with CO2-independent reduced serum starve medium (Gibco/Life Technologies; supplemented with 0.5% FBS, 2 mM L-Glutamine, 100 U/ml penicilin and 0.1 mg/ml streptomycin) for 18 h at 37° C. Cells were transferred and were either kept under constant illumination for 8 h or were protected from light. […] After incubation, plates were washed once with PBS and luciferase was detected with standard, off-the-shelf reagents. These were either Luciferase 1000 Assay System (Promega, Mannheim, Germany) in combination with a microplate reader equipped with an injector (Tecan Infinite 200 Pro, Maennedorf, Switzerland), or ONE-Glo Assay System (Promega) in combination with a microplate reader not equipped with an injector (BioTek Synergy H1). […]
For M38K cells, cell morphology was evaluated as described above but followed by automated image analysis. Phase contrast images (typically three images from two wells) were automatically analyzed. […] Cells were identified and measured in FIJI/ImageJ (Max Planck Society/National Institutes of Health; size limit: 40 to 600 pixel̂2, circularity limit: 0.01 to 1.00). […] For HEK293 cells, MAPK pathway activation was measured using luciferase as described above.

imFGFR1 = target: T1, imFGFR1 (Mus musculus, UniProt P16092); assay: Chemical stimulation of imFGFR1, MAPK luciferase reporter (HEK293 cells); format: cell-based, murine; conditions: 10 nM, FIG. 2b
T1 construct: a single or both FKBP domains were deleted to yield constructs miFGFR1 and miFGFR1-ΔFKBP; myristoylation domain (N); expressed in transfected cells; host or cells: HEK293
T1 sequence (P16092 with tags, fused parts or gaps): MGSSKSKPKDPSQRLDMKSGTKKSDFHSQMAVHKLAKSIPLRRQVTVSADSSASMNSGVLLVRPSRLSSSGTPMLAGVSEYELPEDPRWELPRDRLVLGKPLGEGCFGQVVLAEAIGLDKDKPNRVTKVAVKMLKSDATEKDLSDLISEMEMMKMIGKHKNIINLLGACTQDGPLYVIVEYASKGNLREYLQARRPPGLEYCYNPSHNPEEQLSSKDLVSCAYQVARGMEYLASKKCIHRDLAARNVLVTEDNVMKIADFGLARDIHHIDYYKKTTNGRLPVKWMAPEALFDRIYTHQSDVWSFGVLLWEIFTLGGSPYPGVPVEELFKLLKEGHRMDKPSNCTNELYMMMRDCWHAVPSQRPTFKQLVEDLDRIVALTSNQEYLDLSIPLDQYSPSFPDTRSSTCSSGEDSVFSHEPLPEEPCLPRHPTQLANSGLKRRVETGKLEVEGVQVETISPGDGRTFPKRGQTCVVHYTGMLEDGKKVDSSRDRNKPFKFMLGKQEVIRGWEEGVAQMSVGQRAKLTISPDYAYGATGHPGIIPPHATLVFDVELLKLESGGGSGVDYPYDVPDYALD
Procedure: Activation of the MAPK pathway was assayed with the PathDetect Elk1 trans-Reporting System (Agilent) consisting of an Elk1 phosphorylation-dependent trans-activator and a luciferase-based trans-reporter. Cells were transfected with 213.3 ng total DNA per well (receptor, trans-activator and trans-reporter at ratio of 1:3:60 or 1:30:600) using Lipofectamine 2000. Six h after transfection medium was replaced with CO2-independent reduced serum starve medium (Gibco/Life Technologies; supplemented with 0.5% FBS, 2 mM L-Glutamine, 100 U/ml penicilin and 0.1 mg/ml streptomycin) for 18 h at 37° C. Cells were transferred and were either kept under constant illumination for 8 h or were protected from light. Chemical stimulation of imFGFR1 followed the same procedure, except that 10 nM AP20187 ((Clackson 1998); ARIAD Pharmaceuticals, Cambridge, Mass.) were added before transfer to the stimulation incubator. After incubation, plates were washed once with PBS and luciferase was detected with standard, off-the-shelf reagents. These were either Luciferase 1000 Assay System (Promega, Mannheim, Germany) in combination with a microplate reader equipped with an injector (Tecan Infinite 200 Pro, Maennedorf, Switzerland), or ONE-Glo Assay System (Promega) in combination with a microplate reader not equipped with an injector (BioTek Synergy H1). These assay systems provide equivalent results.

LOV domains = conditions: cited from earlier work
[1] = published half lives converted to lifetimes where necessary; cited from earlier work
[2] = dark state, read-out: Estimated KD, Dark
[3] = light state, read-out: Estimated KD, Light

Row | Molecule | Abrogation of light-induced morphology changes of M38K cells (M38K cells) | Abrogation of MAPK pathway induction in response to red light (MAPK pathway) | Kd (LOV domains; [2]) [µM] | Kd (LOV domains; [3]) [µM] | Estimated excited state lifetime [1] | other results
1 | NC1(c2ccc(-c3nc4ccn5c(=O)[nH]nc5c4cc3-c3ccccc3)cc2)CCC1 [MK2206] | not effective |  |  |  |  | 
2 | Cc1ccc(NC(=O)c2ccc(CN3CCN(C)CC3)cc2)cc1Nc1nccc(-c2cccnc2)n1 [Imatinib] |  | not effective |  |  |  | 
3 | FGF2: a prominent FGFR ligand |  |  |  |  |  | Cell morphology response (M38K cells; M38K cells, blue light (Opto-mFGFR1) or added growth factor): elongated morphology
4 | N#CC(=C(/N)Sc1ccccc1N)/C(C#N)=C(/N)Sc1ccccc1N [UO126] | abrogated | abrogated |  |  |  | 
5 | CC[C@H](C(=O)N1CCCC[C@H]1C(=O)O[C@H](CCc1ccc(OC)c(OC)c1)c1cccc(OCC(=O)NCC(CNC(=O)COc2cccc([C@@H](CCc3ccc(OC)c(OC)c3)OC(=O)[C@@H]3CCCCN3C(=O)[C@@H](CC)c3cc(OC)c(OC)c(OC)c3)c2)CN(C)C)c1)c1cc(OC)c(OC)c(OC)c1 [AP20187] |  |  |  |  |  | Activation of imFGFR1 (MAPK pathway) (imFGFR1): activated
6 | COc1cc(OC)cc(-c2cc3cnc(N)nc3nc2NC(=O)NC(C)(C)C)c1 [PD166866] | abrogated | not effective |  |  |  | Light-induced changes in morphology after pre-treatment (M38K cells; M38K cells with Opto-mFGFR1, blue light, FIGS. 6e and f): inhibited
7 | CrPH-LOV1: LOV domain of C. reinhardtii phototropin, residue 16 to 133 of A8IXU7, SEQ ID NO: 6 (protein, listed as Chlamydomonas reinhardtii) AGLRHTFVVADATLPDCPLVYASEGFYAMTGYGPDEVLGHNCRFLQGEGTDPKEVQKIRDAIKKGEACSVRLLNYRKDGTPFWNLLTVTPIKTPDGRVSKFVGVQVDVTSKTEGKALA |  |  | < 55 | < 55 | ~200^1 s | 
8 | AtPH2-LOV2: LOV domain of A. thaliana phototropin 2, residue 363 to 500 of P93025, SEQ ID NO: 4 (protein, listed as Arabidopsis thaliana) DSWDLSDRERDIRQGIDLATTLERIEKNFVISDPRLPDNPIIFASDSFLELTEYSREEILGRNCRFLQGPETDQATVQKIRDAIRDQREITVQLINYTKSGKKFWNLFHLQPMRDQKGELQYFIGVQLDGSDHVEPLQ |  |  | < 25 | < 25 | ~7 s | 
9 | AtPH1-LOV2: LOV domain of A. thaliana phototropin 1, residue 449 to 586 of O48963, SEQ ID NO: 2 (protein, listed as Arabidopsis thaliana) ESVDDKVRQKEMRKGIDLATTLERIEKNFVITDPRLPDNPIIFASDSFLELTEYSREEILGRNCRFLQGPETDLTTVKKIRNAIDNQTEVTVQLINYTKSGKKFWNIFHLQPMRDQKGEVQYFIGVQLDGSKHVEPVR |  |  | < 25 | < 25 | ~40 s | 
